Results reported in US7998460B2, “Prevention of deficits in neurogenesis with anti-inflammatory agents” (The Board of Trustees of the Leland Stanford Junior …, priority 2003, dated 2011).
Blank lines part the entries; values can stand above or below the molecule they belong to.

Columns and labels:
[1] = system: adult hippocampus-derived neural precursor cells; assay: In vitro neuronal differentiation (doublecortin) of hippocampal neural progenitor cells, 60 hours; format: cell-based, rat; settings: for effect on in vitro neurogenesis (Dcx-expressing cells relative to control): 60 hours differentiation
Description: Neuroinflammation could inhibit neurogenesis by a variety of mechanisms, including stimulation of the HPA axis with subsequent elevation of gluccocorticoids, alterations in the relationships between progenitor cells and cells of the neuro-vasculature, or direct effects of activated microglia on the precursor cells. To determine the extent to which microglial activation might directly affect neural stem/progenitor cells, microglia were stimulated in vitro with LPS. LPS is a potent activator of microglia and up-regulates the elaboration of pro-inflammatory cytokines, including IL-6 and TNF-α. LPS-stimulated or resting microglia were then co-cultured with normal neural stem cells from the hippocampus under conditions that typically stimulate the differentiation of 30 to 40% of the progenitor cells into immature Dcx-expressing neurons (normalized to a value of 1 in FIG. 2A, control). Neurogenesis in the presence of microglia was assessed as the increase or decrease in Dcx-expressing cells relative to control. Co-culture with activated, but not resting, microglia decreased in vitro neurogenesis to approximately half of control levels (FIG. 2A). LPS added directly to precursor cells had no effect on neurogenesis.
To determine if this effect was due to soluble factors or due to cell-cell contact, hippocampal precursor cells were differentiated in the presence of media pre-conditioned by resting or activated microglia.
Activated microglia produce the potent pro-inflammatory cytokines interleukin-1β (IL-1β), tumor necrosis factor-α (TNF-α), interferon-γ (INF-γ) and interleukin-6 (IL-6). Progenitor cells were allowed to differentiate in the presence of each cytokine and the relative expression of Dcx was scored after 60 hours. […] Addition of neutralizing anti-IL-6 antibody to CM from activated microglia was able to fully restore in vitro neurogenesis (FIG. 2A). This implicated IL-6 as a key inhibitor of neurogenesis in microglial CM. […] In contrast to neurogenesis, gliogenesis was unaffected by IL-6 exposure as indicated by the lack of change in the number of cells expressing the astrocyte (glial fibrillary acidic protein, GFAP) or early oligodendrocyte (NG2) markers relative to control cultures (FIG. 2E). The hippocampal precursors used in this study do express the IL-6 receptor, as confirmed by RT-PCR (FIG. 5).
Progenitor Cell Culture Adult hippocampus-derived neural precursor cells were isolated from adult rat hippocampus and cultured as previously described. Briefly, adult female Fisher-344 rats were deeply anesthetized with sodium pentobarbital and were dissected immediately. Hippocampi were enzymatically dissociated with papain (2.5 U/ml; Worthington, Freehold, N.J.)-dispase II (1 U/ml; Boehringer Mannheim, Indianapolis, Ind.)-DNase I (250 U/ml, Worthington) solution. Digested tissue was then washed with DMEM-10% fetal calf serum (FCS) and subsequently mixed with PBS-equilibrated Percoll solution to a final concentration of 35% Percoll. The Percoll solution was made by mixing nine parts of Percoll (Amersham Pharmacia Biotech, Uppsala, Sweden) with one part of 10× PBS. The cell suspension was then fractionated by centrifugation for 10 min at 1000×gravity. Floating myelin and tissue debris were discarded and the cell pellet re-suspended in 65% Percoll solution and fractionated again by centrifugation for 10 min at 1000×g. The floating neural precursors were collected, washed free of Percoll, and plated onto poly-L-ornithine/laminin-coated dishes in DMEM/F12 (1:1) containing 10% FCS medium for 24 hrs; then medium was replaced with serum-free growth medium consisting of DMEM/F12 (1:1) supplemented with N2 supplement (Life Technologies, Gaithersburg, Md.) and 20 ng/ml of human recombinant FGF-2 (Peprotech, Rocky Hill, N.J.). Cell lines were labeled via infection with replication deficient GFP-expressing recombinant retrovirus LZRS-CAMut4GFP. […]

neural progenitor cells = assay: Differentiation of mouse neural progenitor cells with recombinant MCP-1, 5 days; format: cell-based; settings: rmMCP-1 up to 100 ug/ml
Method: To determine if MCP-1 was acting directly on neural progenitor cells to mediate these effects, brains from wild type, MCP-1^−/−, or CCR2^−/− mice were enzymatically dissociated and neurosphere cultures established in growth medium (Neurobasal-A, B27 supplement, 10 ng/ml EGF, 20 ng/ml FGF-2). Neurospheres were dissociated at passage 2-3 and plated as monolayers on laminin coated dishes and then induced to differentiate by replacing growth medium with differentiation medium (Neurobasal-A, B27, 1 ng/ml FGF-2, 100 nM all-trans retinoic acid, 10 ng/ml BDNF, 10 ng/ml NT3). Increasing concentrations of recombinant mouse MCP-1 (rmMCP-1) were added to the medium and cells were allowed to differentiate for 5 days. Cells were then fixed and stained for Dcx (FIG. 11C-C). Within 5 days of differentiation, a proportion of cells became positive for Dcx. […] Similarly, addition of rmMCP-1 up to a final concentration of 100 ug/ml had no effect on the number of neurons produced.
Progenitor Cell Culture and Differentiation Whole brains from PO mouse pups were enzymatically digested with a mixture of papain, neutral protease, and DNAse. Neurospheres were cultured on uncoated plates with medium containing Neurobasal A (Gibco), L-glutamine, PSF, B-27 without vitamin A, 40 ng/ml FGF-2, and 40 ng/ml EGF. Cultures were passaged in parallel when reaching confluence and total viable cell counts were made using a hemocytometer to score trypan blue-excluding cells at each passage. Cells were induced to differentiate by plating dissociated cells into laminin-coated multi-chamber tissue culture slides (Nunc) in differentiation media, Neurobasal A, B-27 without vitamin A, 1% fetal bovine serum, 100 nM all trans-retinoic acid, 1 ng/ml FGF-2, 10 ng/ml BDNF, and 10 ng/ml NT3. […] Total nuclei per sample site was scored using DAPI, neurons were scored on the basis of Dcx immunoreactivity. No significant differences were detected in either growth or differentiation between wild type and MCP-1^−/− or CCR2^−/− mice

C57BI/6 mice = assay: Locomotor chambers and Morris water maze after LPS in mice; format: in vivo, mouse; settings: for distance swum to hidden platform in training, NSAID alone: first training session, no LPS; for probe trial performance, NSAID alone: no LPS challenge
Method: Behavioral testing. Locomotor activity was measured in 17×17 inch chambers lined with three 16-beam infrared arrays in photocell boxes (MED Associates, Inc., St. Albans, Vt.). The mice were placed into the chambers and their locomotor activity was recorded for 20 minutes 4 days after LPS was injected (on Day 4). A 50 msec scanning rate was used for measuring beams broken. Distance traveled was analyzed for estimates of locomotion based on the movement of a given distance and resting delay (movement in a given period) using Open Field Activity software (MED Associates, Inc., St. Albans, Vt.).
Hippocampus-dependent learning and memory was assessed in the standard Morris water maze task. All hippocampus-dependent training and testing was conducted in a black circular tank (170 cm diameter×43 cm height) filled water made opaque using white non-toxic Tempra paint (Rich Art Color Co. Inc, Northvale, Calif.; training and testing). A platform (13 cm diameter×28.5 cm height) was hidden 1 cm below the water surface for platform shaping and training trials. Time and distance traveled in the pool was recorded using Videotrack Automated Behavioral Analysis System (Viewpoint Life Sciences Inc., Otterburn Park, Quebec).
Platform shaping began three days before platform training (Days 25-27). In the absence of extra-maze cues, mice were released from random points in the pool (filled with clearwater) near the platform and gently guided to the platform. Shaping trials continued until the mouse remained on the platform for 15 s over 3 consecutive trials on each of the three sessions.
[…] In the presence of extra-maze cues, the mice were released from the middle of the east, south, or west quadrant, facing the pool wall, and were given 120 s to find the platform hidden beneath opaque water in the center of the north quadrant. […] Sessions of 6 training trials (inter-trial interval of approximately 30 min) were conducted daily until all the mice located the platform in an average of 15 s or less within a session. […] Pathlength and latency were analyzed as measures of learning, swim speed was analyzed as a measure of sensorimotor ability and % time spent in outer annulus was analyzed as a measure of anxiety.
Probe Trial Testing was conducted at 1 week after mice reached criterion in the platform training phase of the experiment. The room setup was identical for platform training and probe trials, with the exception that the platform was removed from the pool during probe trials. The mice were given a single trial in which they were released from the center of the pool and then after 3 minutes were removed from the location that held the platform during training trials. Percent time and distance spent in each quadrant were analyzed as measures of memory, swim speed and total distance swum were analyzed as measures of sensorimotor ability and % time and distance spent in the outer annulus were analyzed as measures of anxiety. After the last probe trial, we ran four daily sessions of reversal trials (4 trials per session) in which mice were given 120 s to locate the platform hidden beneath opaque water in the south quadrant to better interpret whether probe trial performance was indicative of memory or perseveration. […] A visible platform session (2 trials) was administered after the final reversal trial to further test sensorimotor ability. Reversal and visible platform trial performance was scored identically to platform training performance.

Molecule: TNF-α
decrease of in vitro neurogenesis (relative expression of Dcx) ([1]; recombinant IL-6 50 ng/ml or TNF-α 20 ng/ml, 60 hours): approximately 50%

Molecule: rmMCP-1: recombinant mouse monocyte chemoattractant protein-1 (Peprotech)
extent of neuronal arborization (neural progenitor cells): Neither was the extent of arborization influenced
number of Dcx-positive neurons produced (neural progenitor cells): no effect
number of Dcx-positive neurons produced (neural progenitor cells; listed as MCP-1): does not directly affect

probe trial performance, NSAID alone (C57BI/6 mice): performed as badly as LPS-treated mice
probe trial performance, NSAID alone (C57BI/6 mice; listed as celebrex): alone significantly impaired memory
Molecule: Cc1ccc(-c2cc(C(F)(F)F)nn2-c2ccc(S(N)(=O)=O)cc2)cc1 [Celebrex, celecoxib]
distance swum to hidden platform in training, NSAID alone (C57BI/6 mice): slight but significant increased distance swum
distance swum to hidden platform in training, NSAID alone (C57BI/6 mice; listed as celebrex): slight but significant initial increase in swimming distance

B1: IL-1β: recombinant rat interleukin 1β (protein, UniProt Q63264 117-268, looked up)
Interleukin-1 beta: VPIRQLHCRLRDEQQKCLVLSDPCELKALHLNGQNISQQVVFSMSFVQGETSNDKIPVALGLKGLNLYLSCVMKDGTPTLQLESVDPKQYPKKKMEKRFVFNKIEVKTKVEFESAQFPNWYISTSQAEHRPVFLGNSNGRDIVDFTMEPVSS
effect on in vitro neurogenesis (Dcx-expressing cells relative to control) [1]: not significant

B2: INF-γ: recombinant rat interferon γ (protein, UniProt P01581 23-156, looked up)
Interferon gamma: QGTLIESLESLKNYFNSSSMDAMEGKSLLLDIWRNWQKDGNTKILESQIISFYLRLFEVLKDNQAISNNISVIESHLITNFFSNSKAKKDAFMSIAKFEVNNPQIQHKAVNELIRVIHQLSPESSLRKRKRSRC
effect on in vitro neurogenesis (Dcx-expressing cells relative to control) [1]: not significant
